Consider 15 compounds from PubChem BioAssay (NCI).

SMILES strings stand for the structures. “And” between values parts separate entries of the source, which are not always exact repeats. Identical values can stand only once.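 Protocol summary: plate cells (96-well), add compound at 5 concentrations, incubate 48 h, interpolate endpoints linearly. GI50: concentration for 50% inhibition of growth. TGI: concentration producing complete growth inhibition.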

Some test systems named below: UACC-257 melanoma; HCT-15 colon; SK-MEL-5 melanoma; KM12 colon; COLO 205 colon; LOX IMVI melanoma; OVCAR-4 ovarian; CAKI-1 renal; SW-620 colon.
Assay in all cases: NCI-60 cell line screen, 48 h

Regarding `CNC(=S)/N=C(\N)N(C)C`, the TGI with UACC-257 melanoma is greater than 10 µM; with HCT-15 colon, greater than 100 µM; with SK-MEL-5 melanoma, greater than 100 µM; in the experiment with KM12 colon, greater than 100 µM; with COLO 205 colon it was greater than 100 µM; with LOX IMVI melanoma, greater than 100 µM. For the same compound, the TGI with OVCAR-4 ovarian is greater than 10 µM; with CAKI-1 renal, greater than 100 µM; with SW-620 colon it was greater than 100 µM.

For the compound `O=C1c2ccccc2C(=O)C1(O)c1c[nH]c2ccccc12`, the TGI with UACC-257 melanoma, with HCT-15 colon, with KM12 colon, with COLO 205 colon, with LOX IMVI melanoma and in the experiment on OVCAR-4 ovarian was greater than 100 µM each time. The TGI in the experiment on CAKI-1 renal and in the experiment with SW-620 colon was greater than 100 µM each time.

Turning to `COc1cc(Cc2nccc3cc(OC)c(OC)cc23)c(C(C)=O)cc1OC`, the GI50 with UACC-257 melanoma was 55 µM and 49 µM and 35.4 µM; with HCT-15 colon it was 195 µM and 249 µM; in the experiment with SK-MEL-5 melanoma, 25.6 µM and 130 µM; in the experiment with KM12 colon, 106 µM; with COLO 205 colon, 5.36 µM; in the experiment on LOX IMVI melanoma it was 150 µM and 94 µM. Further, the GI50 is 13.2 µM with OVCAR-4 ovarian and greater than 750 µM in the experiment with CAKI-1 renal. Further, the TGI in the experiment with UACC-257 melanoma is 116 µM and 144 µM; with HCT-15 colon it was 300 µM and > 750 µM; in the experiment with SK-MEL-5 melanoma, 139 µM and 486 µM; in the experiment on KM12 colon it was 300 µM; in the experiment on COLO 205 colon it was 40.1 µM and 300 µM; in the experiment on LOX IMVI melanoma it was 300 µM and > 750 µM. Further, the TGI in the experiment on OVCAR-4 ovarian is 52.3 µM and 197 µM; in the experiment on CAKI-1 renal it was greater than 750 µM; in the experiment with SW-620 colon it was 300 µM and > 750 µM.

For the compound `COc1cc2[nH]c3c(c2cc1OC)CCN[C@]31CC[C@]2(CC3c4c(cc(OC)c(O)c42)CCN3C)C[C@H]1OC` (some centres not stated), the TGI is 37.1 µM in the experiment on UACC-257 melanoma; 43.1 µM in the experiment on HCT-15 colon; 30.6 µM in the experiment with SK-MEL-5 melanoma; 35.6 µM with KM12 colon; 27.3 µM in the experiment with COLO 205 colon; 56 µM in the experiment with LOX IMVI melanoma. Also, the TGI is 43.3 µM with OVCAR-4 ovarian, greater than 100 µM with CAKI-1 renal and 53.3 µM in the experiment on SW-620 colon.

On to `Cc1[nH]c(=O)nc2[nH][nH]c(=O)c12`, for which the TGI in the experiment on HCT-15 colon, with KM12 colon, in the experiment on COLO 205 colon, with LOX IMVI melanoma, in the experiment on OVCAR-4 ovarian and in the experiment on CAKI-1 renal was greater than 100 µM each time. Moreover, the TGI in the experiment on SW-620 colon was greater than 100 µM.

On to `O=C(O)CNS(=O)(=O)c1ccc(NC(=O)c2ccc([N+](=O)[O-])cc2)cc1`, for which the TGI in the experiment with UACC-257 melanoma, with HCT-15 colon, with SK-MEL-5 melanoma, in the experiment with KM12 colon, in the experiment with COLO 205 colon and in the experiment with LOX IMVI melanoma was greater than 100 µM in each case. In addition, the TGI in the experiment with OVCAR-4 ovarian, in the experiment with CAKI-1 renal and in the experiment with SW-620 colon was greater than 100 µM each time.

In the case of `O=C(c1cccc2ccccc12)N1CCC(C2CCN(C(=O)c3cccc4ccccc34)CC2)CC1`, the TGI in the experiment on UACC-257 melanoma, in the experiment with HCT-15 colon, in the experiment on SK-MEL-5 melanoma, in the experiment with KM12 colon, with COLO 205 colon and with LOX IMVI melanoma was greater than 100 µM in each case. For the same compound, the TGI in the experiment on CAKI-1 renal and in the experiment on SW-620 colon was greater than 100 µM in each case.

On to `CCCN(CCC)C(=O)c1c([N+](=O)[O-])cc(C(F)(F)F)cc1[N+](=O)[O-]`, for which the TGI is greater than 100 µM in the experiment with HCT-15 colon; greater than 100 µM in the experiment on KM12 colon; 39.1 µM with COLO 205 colon; greater than 100 µM with LOX IMVI melanoma; 32.9 µM in the experiment on OVCAR-4 ovarian; greater than 100 µM in the experiment with CAKI-1 renal. For the same compound, the TGI with SW-620 colon is 84.3 µM.

Take `Cc1nnc(NS(=O)(=O)c2ccc(N=Nc3cc(N=Nc4ccc(S(=O)(=O)Nc5nnc(C)s5)cc4)c4c(NC(=O)C(Cl)Cl)cccc4c3OC(=O)C(Cl)Cl)cc2)s1` (tested in a mixture with another compound): the TGI in the experiment with UACC-257 melanoma is greater than 100 µM; in the experiment with HCT-15 colon, greater than 100 µM; in the experiment with SK-MEL-5 melanoma, 75.8 µM; with KM12 colon, greater than 100 µM; in the experiment with COLO 205 colon, greater than 100 µM; in the experiment on LOX IMVI melanoma, greater than 100 µM. Further, the TGI was 39 µM in the experiment on OVCAR-4 ovarian, greater than 100 µM with CAKI-1 renal and greater than 100 µM in the experiment on SW-620 colon.

With `O=C(/C=C/c1ccc(Cl)c(Cl)c1)c1ccc2ccccc2c1`, the TGI was greater than 100 µM in the experiment with UACC-257 melanoma; greater than 100 µM in the experiment on HCT-15 colon; greater than 100 µM in the experiment with SK-MEL-5 melanoma; greater than 100 µM in the experiment with KM12 colon; 28.7 µM with COLO 205 colon; greater than 100 µM with LOX IMVI melanoma. Further, the TGI with OVCAR-4 ovarian, in the experiment with CAKI-1 renal and with SW-620 colon was greater than 100 µM throughout.

Consider `[N-]=[N+]=C1C(=O)NN=C1c1ccccc1`, for which the TGI with UACC-257 melanoma, in the experiment on HCT-15 colon, in the experiment with KM12 colon, in the experiment on COLO 205 colon, in the experiment with LOX IMVI melanoma and in the experiment with OVCAR-4 ovarian was greater than 100 µM in each case. The TGI in the experiment on CAKI-1 renal and with SW-620 colon was greater than 100 µM in each case.

For `CN(Cc1ccccc1)C(=O)c1ccccc1C(=O)O`, the TGI in the experiment on UACC-257 melanoma, in the experiment on HCT-15 colon, with KM12 colon, in the experiment with COLO 205 colon, in the experiment with LOX IMVI melanoma and in the experiment with OVCAR-4 ovarian was greater than 100 µM throughout. In addition, the TGI in the experiment on CAKI-1 renal and with SW-620 colon was greater than 100 µM in each case.

With `CCOC(=O)C(=O)Nc1ccccc1CC`, the TGI with UACC-257 melanoma, in the experiment with SK-MEL-5 melanoma, in the experiment with KM12 colon, with LOX IMVI melanoma, with OVCAR-4 ovarian and in the experiment on CAKI-1 renal was greater than 100 µM each time. For the same compound, the TGI in the experiment on SW-620 colon is greater than 100 µM.

For `CCCC1=C(CC)C(C(=O)Nc2c(C)cccc2C)=NC(S)N1` (configuration not stated), the TGI with UACC-257 melanoma, with HCT-15 colon, in the experiment on SK-MEL-5 melanoma, in the experiment with KM12 colon, in the experiment on COLO 205 colon and in the experiment on OVCAR-4 ovarian was greater than 100 µM each time. The TGI in the experiment on CAKI-1 renal and in the experiment with SW-620 colon was greater than 100 µM each time.

For the compound `O=C(CCc1nc(=S)[nH][nH]1)Nc1ccccc1Cl`, the TGI is greater than 100 µM in the experiment on UACC-257 melanoma; 41.3 µM in the experiment on HCT-15 colon; greater than 100 µM in the experiment with SK-MEL-5 melanoma; greater than 100 µM with KM12 colon; greater than 100 µM with COLO 205 colon; greater than 100 µM with LOX IMVI melanoma. Besides, the TGI with OVCAR-4 ovarian is greater than 100 µM; in the experiment on CAKI-1 renal, greater than 100 µM; in the experiment with SW-620 colon, 35.6 µM.
